Test results taken from PMC10425983 (ACS Infectious Diseases, 2023).

What was measured:
[1] = Cytotoxicity toward primary peritoneal mouse macrophages; format: cell-based; settings: Swiss, mouse, primary peritoneal mouse macrophages (PMM), PMM pCC50, primary mouse macrophages; highest in-test concentration 64 μM
[2] = molecular target: hERG (Homo sapiens, UniProt Q12809); assay: hERG channel blockage; format: biochemical; settings: hERG pIC50
[3] = molecular target: CYP3A4 (Homo sapiens, UniProt P08684); assay: CYP inhibition CYP3A4; format: in vitro ADME; settings: inhibitor class in words
Chain of CYP3A4 (P08684 whole entry): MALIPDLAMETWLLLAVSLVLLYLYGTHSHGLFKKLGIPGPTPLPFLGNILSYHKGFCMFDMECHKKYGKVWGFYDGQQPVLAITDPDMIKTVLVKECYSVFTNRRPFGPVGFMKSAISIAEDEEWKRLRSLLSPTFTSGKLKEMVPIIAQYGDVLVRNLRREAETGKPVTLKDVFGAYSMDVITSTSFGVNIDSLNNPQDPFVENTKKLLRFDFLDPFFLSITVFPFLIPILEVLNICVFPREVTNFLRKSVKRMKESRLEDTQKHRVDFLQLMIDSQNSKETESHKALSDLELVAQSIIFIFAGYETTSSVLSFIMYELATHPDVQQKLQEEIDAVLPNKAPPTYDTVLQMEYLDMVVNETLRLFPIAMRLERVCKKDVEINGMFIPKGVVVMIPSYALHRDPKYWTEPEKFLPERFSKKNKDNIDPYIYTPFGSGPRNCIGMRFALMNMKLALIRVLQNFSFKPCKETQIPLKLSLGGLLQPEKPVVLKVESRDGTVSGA

[4] = molecular target: CYP2C9 (Homo sapiens, UniProt P11712); assay: CYP inhibition CYP2C9; format: in vitro ADME
Chain of CYP2C9 (P11712 whole entry): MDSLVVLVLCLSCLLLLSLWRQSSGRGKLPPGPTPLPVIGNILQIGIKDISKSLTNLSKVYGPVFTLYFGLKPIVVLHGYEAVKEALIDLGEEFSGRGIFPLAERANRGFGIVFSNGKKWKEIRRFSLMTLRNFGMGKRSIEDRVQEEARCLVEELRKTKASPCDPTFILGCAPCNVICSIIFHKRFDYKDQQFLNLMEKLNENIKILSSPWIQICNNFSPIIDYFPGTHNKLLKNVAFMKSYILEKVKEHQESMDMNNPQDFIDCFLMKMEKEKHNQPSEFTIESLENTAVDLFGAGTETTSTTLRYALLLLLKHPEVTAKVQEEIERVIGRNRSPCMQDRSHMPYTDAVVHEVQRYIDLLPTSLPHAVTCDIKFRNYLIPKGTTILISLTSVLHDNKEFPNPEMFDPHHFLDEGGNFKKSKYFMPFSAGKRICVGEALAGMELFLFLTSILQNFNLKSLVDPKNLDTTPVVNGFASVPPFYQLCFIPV

[5] = Human liver microsome intrinsic clearance; format: in vitro ADME; settings: human, human liver microsomes, pH 7.4, HLM clint
[6] = molecular target: CYP2D6 (Homo sapiens, UniProt P10635); assay: CYP inhibition CYP2D6; format: in vitro ADME; settings: inhibitor class in words
Chain of CYP2D6 (P10635 whole entry): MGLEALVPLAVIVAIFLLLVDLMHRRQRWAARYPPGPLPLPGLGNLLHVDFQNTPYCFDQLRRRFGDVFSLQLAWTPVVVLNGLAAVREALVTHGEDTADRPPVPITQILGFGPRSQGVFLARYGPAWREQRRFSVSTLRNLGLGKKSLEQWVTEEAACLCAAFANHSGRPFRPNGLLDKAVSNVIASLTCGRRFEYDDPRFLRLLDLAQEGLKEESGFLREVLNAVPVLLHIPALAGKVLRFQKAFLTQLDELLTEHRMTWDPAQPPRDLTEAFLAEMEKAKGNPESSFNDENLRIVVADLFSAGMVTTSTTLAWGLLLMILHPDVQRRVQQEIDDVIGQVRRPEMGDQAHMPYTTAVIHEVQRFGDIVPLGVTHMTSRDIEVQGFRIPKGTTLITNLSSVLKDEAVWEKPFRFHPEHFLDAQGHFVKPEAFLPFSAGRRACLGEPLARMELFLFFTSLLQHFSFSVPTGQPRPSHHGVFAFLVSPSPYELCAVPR

[7] = molecular target: T1, CYP2C8 (Homo sapiens, UniProt P10632); assay: CYP inhibition CYP2C8; format: in vitro ADME
T1 sequence (P10632 1-490): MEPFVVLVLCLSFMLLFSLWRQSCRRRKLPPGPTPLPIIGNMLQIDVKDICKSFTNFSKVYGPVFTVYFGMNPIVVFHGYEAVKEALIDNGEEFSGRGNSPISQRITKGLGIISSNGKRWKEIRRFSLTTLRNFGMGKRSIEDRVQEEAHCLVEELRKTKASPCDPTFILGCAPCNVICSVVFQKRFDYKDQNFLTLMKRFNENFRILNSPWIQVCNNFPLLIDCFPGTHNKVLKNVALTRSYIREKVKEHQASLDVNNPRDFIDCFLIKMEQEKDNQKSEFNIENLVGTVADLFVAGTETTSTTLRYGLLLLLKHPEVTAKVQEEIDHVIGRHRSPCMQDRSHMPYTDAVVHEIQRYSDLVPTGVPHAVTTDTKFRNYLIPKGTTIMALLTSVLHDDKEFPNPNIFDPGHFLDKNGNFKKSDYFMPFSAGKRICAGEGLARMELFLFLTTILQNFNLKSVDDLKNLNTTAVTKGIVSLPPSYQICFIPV

[8] = test system: L. infantum (MHOM/MA(BE)/67/ITMAP263) amastigotes; assay: L. infantum intramacrophage amastigote assay; format: cell-based, Leishmania infantum
[9] = molecular target: T2, CYP1A2 (Homo sapiens, UniProt P05177); assay: CYP inhibition CYP1A2; format: in vitro ADME
T2 sequence (P05177 1-516): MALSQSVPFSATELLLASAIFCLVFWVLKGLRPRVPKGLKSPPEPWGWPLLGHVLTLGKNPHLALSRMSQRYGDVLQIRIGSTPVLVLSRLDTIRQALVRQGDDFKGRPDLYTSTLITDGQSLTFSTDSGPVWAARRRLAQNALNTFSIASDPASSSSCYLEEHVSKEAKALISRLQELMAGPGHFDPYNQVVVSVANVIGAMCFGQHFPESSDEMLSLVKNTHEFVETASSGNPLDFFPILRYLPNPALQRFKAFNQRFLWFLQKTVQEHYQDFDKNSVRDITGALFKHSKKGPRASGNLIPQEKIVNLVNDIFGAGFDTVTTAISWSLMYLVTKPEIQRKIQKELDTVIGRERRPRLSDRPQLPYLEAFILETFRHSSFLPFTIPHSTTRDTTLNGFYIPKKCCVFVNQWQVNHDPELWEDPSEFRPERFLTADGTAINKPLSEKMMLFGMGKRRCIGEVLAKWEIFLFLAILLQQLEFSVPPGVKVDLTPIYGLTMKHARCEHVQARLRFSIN

[10] = Thermodynamic aqueous solubility; format: physicochemical
[11] = molecular target: CYP2C19 (Homo sapiens, UniProt P33261); assay: CYP inhibition CYP2C19; format: in vitro ADME
Chain of CYP2C19 (P33261 whole entry): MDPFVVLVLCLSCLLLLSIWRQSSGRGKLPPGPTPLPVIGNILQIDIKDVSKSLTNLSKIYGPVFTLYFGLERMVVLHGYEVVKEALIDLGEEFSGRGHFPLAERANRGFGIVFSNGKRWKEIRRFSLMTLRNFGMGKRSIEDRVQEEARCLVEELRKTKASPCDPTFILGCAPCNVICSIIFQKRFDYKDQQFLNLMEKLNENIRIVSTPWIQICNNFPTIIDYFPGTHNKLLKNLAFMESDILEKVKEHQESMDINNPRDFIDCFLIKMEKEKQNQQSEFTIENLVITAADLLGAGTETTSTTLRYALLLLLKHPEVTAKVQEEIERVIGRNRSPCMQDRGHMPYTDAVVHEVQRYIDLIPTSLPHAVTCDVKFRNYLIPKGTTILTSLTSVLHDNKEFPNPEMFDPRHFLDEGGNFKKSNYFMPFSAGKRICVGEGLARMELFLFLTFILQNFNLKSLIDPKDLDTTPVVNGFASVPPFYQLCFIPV

[12] = Rat hepatocyte intrinsic clearance; format: in vitro ADME; settings: rat, rat hepatocytes
[13] = MDCK-wt permeability assay; format: in vitro ADME, canine; settings: dog

Chain of hERG (Q12809 whole entry): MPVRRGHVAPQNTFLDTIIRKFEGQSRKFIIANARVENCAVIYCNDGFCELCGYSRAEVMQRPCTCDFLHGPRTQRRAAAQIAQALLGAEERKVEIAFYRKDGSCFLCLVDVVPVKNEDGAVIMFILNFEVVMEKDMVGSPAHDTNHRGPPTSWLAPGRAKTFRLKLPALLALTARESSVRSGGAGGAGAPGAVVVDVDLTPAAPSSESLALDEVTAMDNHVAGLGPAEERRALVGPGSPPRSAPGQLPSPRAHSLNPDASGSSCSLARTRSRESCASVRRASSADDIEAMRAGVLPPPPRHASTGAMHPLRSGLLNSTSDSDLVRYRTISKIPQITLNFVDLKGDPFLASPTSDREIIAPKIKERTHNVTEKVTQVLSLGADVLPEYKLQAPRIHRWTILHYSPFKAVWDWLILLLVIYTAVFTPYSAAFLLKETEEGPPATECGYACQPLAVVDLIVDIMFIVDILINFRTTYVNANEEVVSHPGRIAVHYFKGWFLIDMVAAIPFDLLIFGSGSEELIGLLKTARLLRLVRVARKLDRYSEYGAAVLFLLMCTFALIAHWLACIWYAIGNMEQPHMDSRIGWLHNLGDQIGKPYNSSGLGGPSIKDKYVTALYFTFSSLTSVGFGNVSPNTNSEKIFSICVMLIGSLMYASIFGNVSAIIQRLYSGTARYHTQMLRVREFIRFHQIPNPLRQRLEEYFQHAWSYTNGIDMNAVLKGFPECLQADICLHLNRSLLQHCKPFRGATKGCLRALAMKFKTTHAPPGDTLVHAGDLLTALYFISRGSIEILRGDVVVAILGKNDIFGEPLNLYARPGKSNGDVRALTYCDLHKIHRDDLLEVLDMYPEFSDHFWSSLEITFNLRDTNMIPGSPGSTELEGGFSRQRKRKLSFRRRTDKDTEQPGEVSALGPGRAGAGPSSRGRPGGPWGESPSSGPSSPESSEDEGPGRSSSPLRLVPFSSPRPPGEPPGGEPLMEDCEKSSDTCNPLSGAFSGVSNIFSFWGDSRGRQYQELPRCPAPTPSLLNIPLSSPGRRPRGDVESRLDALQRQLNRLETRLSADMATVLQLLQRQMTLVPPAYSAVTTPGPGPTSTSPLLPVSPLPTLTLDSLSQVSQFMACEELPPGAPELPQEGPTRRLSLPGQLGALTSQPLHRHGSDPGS

## Fc1ccc(Nc2c(-c3ccccn3)nc3ccc(C4CC4)cn23)cc1 [Compound 3p, 6-Cyclopropyl-N-(4-fluorophenyl)-2-(pyridin-2-yl)imidazo[1,2-a]pyridin-3-amine]
[1]
  CC50 at 5 days: 7.94 µM
[2]
  IC50: 12.6 µM
[3]
  CYP3A4 inhibition, classification: moderate inhibition
[4]
  IC50: 0.76 µM
[4]; inhibitor class in words
  CYP2C9 inhibition, classification: strong inhibitor
[5]
  microsomal CLint at 3 µM: 91.6 µL/min/mg
[6]
  CYP2D6 inhibition, classification: moderate inhibition
[7]
  IC50: 4.9 µM
[7]; inhibitor class in words
  CYP2C8 inhibition, classification: moderate inhibitor
[8]; Leishmania infantum, 120 h, read-out: L.inf pEC50 (converted)
  EC50: 6.31 µM
[8]; ratio CC50 μM (PMM)/EC50 μM (L.inf)
  SI: 1
[9]
  IC50: 0.59 µM
[9]; inhibitor class in words
  CYP1A2 inhibition, classification: strong inhibitor
[10]
  aq. sol.: 0.7 µM
[11]
  IC50: 1.8 µM
[11]; inhibitor class in words
  CYP2C19 inhibition, classification: moderate inhibitor
[12]
  hepatocyte CLint: 148 µL/min/1e6 cells
[13]
  Papp A→B at 2 h, 10 µM: 167 nm/s
